Data from ChEMBL document CHEMBL1201862, “PubChem BioAssay data set” (2004).
Values joined by “and” are separate entries in the source; they are usually repeats but may differ in a detail not shown here. Identical values can stand only once. Active and inactive are the calls of the source.

Columns and labels:
[1] = target: Photoreceptor-specific nuclear receptor (Homo sapiens, UniProt Q9Y5X4); assay type: functional;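 further: potency for compounds that break the NR2E3 corepressor complex and count as activators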
[2] = target: Peroxisome proliferator-activated receptor gamma/Nuclear receptor corepressor 2 (Homo sapiens, UniProt P37231+Q9Y618); assay type: functional
Estrogen receptor beta [3] = target: T1, Estrogen receptor beta (Homo sapiens, UniProt Q92731);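 further: recombinant ER-beta bound to coactivator SRC1 peptide in presence of estradiol agonist; inhibitors block coactivator peptide binding and lower the FRET signal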
Estrogen receptor beta [4] = target: T1, Estrogen receptor beta; test: blockers of SRC-3 recruitment to ERβ – biochemical, ELISA, streptavidin-HRP readout, orthogonal assay, confirmation (AID 1060)
[5] = target: DNA dC->dU-editing enzyme APOBEC-3A (Homo sapiens, UniProt P31941); test: Dose Response confirmation of small molecule APOBEC3A DNA Deaminase Inhibitors via a fluorescence-based single-stranded DNA deaminase assay. [Related pubchem assays (depositor defined):AID493011, AID493024]; assay type: functional
[6] = target: DNA dC->dU-editing enzyme APOBEC-3G (Homo sapiens, UniProt Q9HC16); assay type: functional;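 further: Dose-response counterscreen measuring inhibition of APOBEC3G DNA deaminase activity, run while confirming APOBEC3A inhibitors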
[7] = Luminescence Cell-Based Dose Response to Identify Activators of 5'UTR Stem-Loop Driven Prion Protein mRNA Translation in H4-C Neuroglioblastoma Cells. [Related pubchem assays: 1829 (Project Summary), 1814 (Primary HTS)]; assay type: functional
H4 = test: Luminescence Cell-Based Dose Response HTS to Identify Activators of 5'UTR Stem-Loop Driven Prion Protein mRNA Translation in H4 Neuroglioblastoma Cells. [Related pubchem assays: 1829 (Project Summary), 1814 (Primary HTS)]; assay type: functional; settings: Homo sapiens
[8] = Luminescence Cell-Based Dose Response to Identify Activators of Luciferase Translation or Activity in H4-C Neuroglioblastoma Cells. [Related pubchem assays: 1829 (Project Summary), 1814 (Primary HTS)]; assay type: functional
Prothrombin = Prothrombin (Homo sapiens, UniProt P00734); test: Thrombin 1536 HTS Dose Response Confirmation. [Related pubchem assays: 1046 (Thrombin 1536 HTS; hits were confirmed in this assay)]; assay type: functional
[9] = Luminescence Cell-Based Dose Confirmation to Identify Activators of 5'UTR Stem-Loop Driven Alpha-Synuclein mRNA Translation in H4 Neuroglioblastoma Cells. [Related pubchem assays: 1829 (Project Summary), 1814 (Primary HTS)]; assay type: functional
[10] = target: Lysosomal acid glucosylceramidase (Homo sapiens, UniProt P04062); test: Dose response cell-based high throughput screening assay to identify enhancers of beta-glucosidase activity. [Related pubchem assays: 784 ]; assay type: functional
Chain of Lysosomal acid glucosylceramidase (P04062 whole entry): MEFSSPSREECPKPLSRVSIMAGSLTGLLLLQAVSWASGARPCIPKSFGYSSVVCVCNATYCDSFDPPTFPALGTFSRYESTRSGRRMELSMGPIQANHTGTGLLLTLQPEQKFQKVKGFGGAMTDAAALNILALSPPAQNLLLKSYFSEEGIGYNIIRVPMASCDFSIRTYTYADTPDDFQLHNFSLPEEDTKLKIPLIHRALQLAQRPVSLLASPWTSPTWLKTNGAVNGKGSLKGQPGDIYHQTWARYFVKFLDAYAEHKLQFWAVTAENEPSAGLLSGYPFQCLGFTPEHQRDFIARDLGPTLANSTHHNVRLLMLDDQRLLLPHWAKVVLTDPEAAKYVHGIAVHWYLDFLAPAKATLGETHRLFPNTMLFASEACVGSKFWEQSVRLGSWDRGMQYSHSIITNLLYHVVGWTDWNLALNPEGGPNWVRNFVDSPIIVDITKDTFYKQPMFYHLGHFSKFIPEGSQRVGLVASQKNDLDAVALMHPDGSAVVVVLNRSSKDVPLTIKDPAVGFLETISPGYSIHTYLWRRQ

T1 sequence (Q92731 whole entry): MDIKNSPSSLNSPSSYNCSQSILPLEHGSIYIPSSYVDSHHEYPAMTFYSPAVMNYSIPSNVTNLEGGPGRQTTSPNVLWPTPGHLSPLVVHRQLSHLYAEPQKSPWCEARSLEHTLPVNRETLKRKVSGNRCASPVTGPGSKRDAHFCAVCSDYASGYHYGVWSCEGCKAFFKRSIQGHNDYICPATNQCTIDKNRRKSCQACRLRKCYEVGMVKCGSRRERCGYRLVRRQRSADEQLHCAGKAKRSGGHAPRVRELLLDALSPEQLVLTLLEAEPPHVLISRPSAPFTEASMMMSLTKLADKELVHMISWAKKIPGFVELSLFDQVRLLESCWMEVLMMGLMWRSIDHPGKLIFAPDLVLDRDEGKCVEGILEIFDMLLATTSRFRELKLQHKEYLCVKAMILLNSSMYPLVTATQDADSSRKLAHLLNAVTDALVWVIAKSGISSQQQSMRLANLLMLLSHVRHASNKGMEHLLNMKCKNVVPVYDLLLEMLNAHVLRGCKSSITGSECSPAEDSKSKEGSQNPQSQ
Chain of DNA dC->dU-editing enzyme APOBEC-3G (Q9HC16 whole entry): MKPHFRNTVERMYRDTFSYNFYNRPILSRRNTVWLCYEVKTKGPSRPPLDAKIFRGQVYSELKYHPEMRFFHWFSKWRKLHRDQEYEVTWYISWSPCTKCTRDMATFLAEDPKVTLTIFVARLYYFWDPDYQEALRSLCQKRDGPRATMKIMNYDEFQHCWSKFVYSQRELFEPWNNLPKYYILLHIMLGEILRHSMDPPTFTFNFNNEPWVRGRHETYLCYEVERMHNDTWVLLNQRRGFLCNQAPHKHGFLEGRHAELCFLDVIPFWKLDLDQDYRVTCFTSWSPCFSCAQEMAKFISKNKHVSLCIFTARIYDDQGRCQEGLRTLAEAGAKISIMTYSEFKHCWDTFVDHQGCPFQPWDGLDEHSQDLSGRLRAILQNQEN
Chain of Photoreceptor-specific nuclear receptor (Q9Y5X4 whole entry): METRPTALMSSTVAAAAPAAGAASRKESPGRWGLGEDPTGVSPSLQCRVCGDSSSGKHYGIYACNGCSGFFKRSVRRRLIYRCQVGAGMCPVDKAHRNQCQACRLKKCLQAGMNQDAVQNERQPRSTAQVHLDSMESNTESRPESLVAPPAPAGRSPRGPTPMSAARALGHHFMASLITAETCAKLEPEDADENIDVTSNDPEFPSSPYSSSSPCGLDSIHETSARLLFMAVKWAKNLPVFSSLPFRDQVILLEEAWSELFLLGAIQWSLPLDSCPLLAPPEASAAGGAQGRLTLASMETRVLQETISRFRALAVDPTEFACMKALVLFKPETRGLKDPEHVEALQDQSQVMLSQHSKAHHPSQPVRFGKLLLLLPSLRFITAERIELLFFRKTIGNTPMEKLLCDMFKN
Chain of DNA dC->dU-editing enzyme APOBEC-3A (P31941 whole entry): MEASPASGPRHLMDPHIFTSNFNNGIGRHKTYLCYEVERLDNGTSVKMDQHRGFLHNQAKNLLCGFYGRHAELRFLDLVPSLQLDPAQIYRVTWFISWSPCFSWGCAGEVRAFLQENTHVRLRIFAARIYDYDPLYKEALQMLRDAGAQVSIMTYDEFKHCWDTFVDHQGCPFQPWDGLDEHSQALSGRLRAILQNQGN
Chain of Peroxisome proliferator-activated receptor gamma/Nuclear receptor corepressor 2 (P37231 whole entry): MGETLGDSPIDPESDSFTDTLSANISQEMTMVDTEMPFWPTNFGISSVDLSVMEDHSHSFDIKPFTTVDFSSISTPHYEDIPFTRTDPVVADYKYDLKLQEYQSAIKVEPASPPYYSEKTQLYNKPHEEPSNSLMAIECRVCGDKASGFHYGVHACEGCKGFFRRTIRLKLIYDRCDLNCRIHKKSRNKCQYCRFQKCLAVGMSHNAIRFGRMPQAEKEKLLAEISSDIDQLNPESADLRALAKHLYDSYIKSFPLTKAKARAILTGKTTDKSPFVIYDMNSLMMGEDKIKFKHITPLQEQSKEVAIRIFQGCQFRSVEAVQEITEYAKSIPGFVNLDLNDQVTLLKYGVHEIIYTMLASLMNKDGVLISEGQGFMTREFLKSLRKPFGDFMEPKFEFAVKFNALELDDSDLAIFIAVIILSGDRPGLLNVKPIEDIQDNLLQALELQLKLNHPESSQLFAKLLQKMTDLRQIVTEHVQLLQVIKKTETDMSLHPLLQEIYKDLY
Chain of Peroxisome proliferator-activated receptor gamma/Nuclear receptor corepressor 2 (Q9Y618 whole entry): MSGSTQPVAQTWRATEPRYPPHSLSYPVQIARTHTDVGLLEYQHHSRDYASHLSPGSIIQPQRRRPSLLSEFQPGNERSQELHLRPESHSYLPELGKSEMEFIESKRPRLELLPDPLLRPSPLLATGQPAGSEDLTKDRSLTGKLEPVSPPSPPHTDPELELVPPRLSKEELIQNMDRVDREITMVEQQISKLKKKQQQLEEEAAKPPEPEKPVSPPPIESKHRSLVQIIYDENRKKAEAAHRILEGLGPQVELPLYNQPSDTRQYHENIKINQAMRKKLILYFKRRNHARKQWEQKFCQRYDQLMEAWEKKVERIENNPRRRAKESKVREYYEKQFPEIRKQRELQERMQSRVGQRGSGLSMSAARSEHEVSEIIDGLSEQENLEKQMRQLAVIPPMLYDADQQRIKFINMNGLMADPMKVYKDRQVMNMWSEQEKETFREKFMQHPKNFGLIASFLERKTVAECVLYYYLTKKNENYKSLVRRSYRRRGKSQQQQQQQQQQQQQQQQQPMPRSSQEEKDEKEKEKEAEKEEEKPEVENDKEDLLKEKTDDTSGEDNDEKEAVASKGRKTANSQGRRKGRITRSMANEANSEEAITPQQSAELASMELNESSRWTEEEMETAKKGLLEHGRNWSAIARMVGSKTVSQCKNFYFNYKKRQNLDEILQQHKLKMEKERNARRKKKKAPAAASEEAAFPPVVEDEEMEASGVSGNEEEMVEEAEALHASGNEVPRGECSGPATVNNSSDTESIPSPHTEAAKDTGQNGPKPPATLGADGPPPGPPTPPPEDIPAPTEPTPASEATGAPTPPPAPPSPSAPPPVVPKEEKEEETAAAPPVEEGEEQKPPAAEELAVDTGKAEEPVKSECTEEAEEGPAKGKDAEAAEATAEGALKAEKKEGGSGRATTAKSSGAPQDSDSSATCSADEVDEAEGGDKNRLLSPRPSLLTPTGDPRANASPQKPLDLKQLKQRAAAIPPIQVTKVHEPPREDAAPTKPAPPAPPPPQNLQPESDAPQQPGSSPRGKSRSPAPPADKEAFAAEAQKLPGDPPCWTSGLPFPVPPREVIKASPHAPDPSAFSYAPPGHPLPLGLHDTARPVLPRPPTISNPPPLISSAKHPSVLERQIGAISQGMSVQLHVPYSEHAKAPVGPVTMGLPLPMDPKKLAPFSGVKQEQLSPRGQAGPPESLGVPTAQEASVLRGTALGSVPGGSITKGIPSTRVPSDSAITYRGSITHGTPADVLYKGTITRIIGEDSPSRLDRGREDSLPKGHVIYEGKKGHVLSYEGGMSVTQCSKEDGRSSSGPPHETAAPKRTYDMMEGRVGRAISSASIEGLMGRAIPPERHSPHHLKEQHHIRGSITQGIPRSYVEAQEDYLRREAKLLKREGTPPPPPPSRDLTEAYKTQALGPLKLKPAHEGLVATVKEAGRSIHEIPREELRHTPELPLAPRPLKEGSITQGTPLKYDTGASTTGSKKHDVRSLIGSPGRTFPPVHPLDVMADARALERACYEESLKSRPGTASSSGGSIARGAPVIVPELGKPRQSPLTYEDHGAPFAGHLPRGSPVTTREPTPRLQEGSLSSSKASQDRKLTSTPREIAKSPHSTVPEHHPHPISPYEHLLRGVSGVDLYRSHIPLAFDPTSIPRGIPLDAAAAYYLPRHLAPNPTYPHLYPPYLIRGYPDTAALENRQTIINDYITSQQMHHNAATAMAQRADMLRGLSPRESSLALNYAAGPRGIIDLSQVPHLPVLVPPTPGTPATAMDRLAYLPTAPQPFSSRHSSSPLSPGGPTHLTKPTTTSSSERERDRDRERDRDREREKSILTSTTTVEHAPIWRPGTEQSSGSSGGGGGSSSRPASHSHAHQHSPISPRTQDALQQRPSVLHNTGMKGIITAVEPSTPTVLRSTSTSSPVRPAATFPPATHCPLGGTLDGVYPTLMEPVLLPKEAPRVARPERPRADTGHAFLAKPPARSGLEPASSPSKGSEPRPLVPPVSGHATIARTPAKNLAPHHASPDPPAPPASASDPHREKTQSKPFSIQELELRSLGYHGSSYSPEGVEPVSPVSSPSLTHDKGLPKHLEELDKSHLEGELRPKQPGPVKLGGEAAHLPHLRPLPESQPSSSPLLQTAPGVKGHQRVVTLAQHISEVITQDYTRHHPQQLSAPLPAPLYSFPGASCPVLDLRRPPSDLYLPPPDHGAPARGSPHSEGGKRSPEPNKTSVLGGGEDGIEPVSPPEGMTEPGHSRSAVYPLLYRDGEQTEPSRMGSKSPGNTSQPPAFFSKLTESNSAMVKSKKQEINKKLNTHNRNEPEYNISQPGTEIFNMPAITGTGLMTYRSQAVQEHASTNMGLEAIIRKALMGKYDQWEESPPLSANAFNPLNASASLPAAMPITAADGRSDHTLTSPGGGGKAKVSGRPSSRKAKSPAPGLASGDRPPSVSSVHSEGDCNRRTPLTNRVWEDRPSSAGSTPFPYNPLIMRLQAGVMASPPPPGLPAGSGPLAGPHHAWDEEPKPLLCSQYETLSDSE

COc1cccc(CNC(=O)COC(=O)/C(C#N)=C/c2ccc(N(C)C)cc2)c1
IC50 [1]: > 39.8 µM (not active) | IC50 [2]: 29.4 µM (not active)

COCCCn1c(Cc2csc(Nc3cccc(Cl)c3)n2)nnc1SCC(=O)OC1CCCCC1
IC50 (Estrogen receptor beta [3]): < 1.56 µM (active) | IC50 (Estrogen receptor beta [4]): 43.4 nM (not active) | IC50 [5]: 20.8 µM (active) | IC50 [6]: 38.8 µM (active)

Cc1ccccc1Nc1nnc(SCC(=O)NCc2ccco2)s1
IC50 (Estrogen receptor beta [3]): 10.3 µM (active) | IC50 (Estrogen receptor beta [4]): 3.24 µM (not active) and > 50 µM (not active)

Cc1ccc(-n2c(C)cc(C(=O)CSc3nncs3)c2C)cc1
EC50 [7]: 0.332 µM (active) | EC50 (H4): < 0.1 µM (active) | EC50 [8]: 0.34 µM (active) | IC50 (Prothrombin): > 50 µM (not active) | EC50 [9]: 0.346 µM (active)

CCOC(=O)c1ccc(NC(=O)CSC2=NC(=O)C(CC)C(=O)N2)cc1 (stereo not given)
EC50 [10]: > 10 µM (not active)

CC(C)OC(=O)CSc1nnc(-c2cccnc2)n1N
EC50 [10]: > 10 µM (not active)
